Source: patent publication US20240174625A1, “COMPOSITIONS AND METHODS FOR TREATING TAUOPATHIES” (The Regents of the University of California, priority 2021, published 2024)

Key:
NPEPPS = molecular target: T1, NPEPPS (Homo sapiens, UniProt P55786); experiment: Cellular thermal shift assay (CETSA) in HEK293T cell lysates; format: binding; conditions: concentration-dependent
T1 construct: endogenous in cells; host or cells: HEK293T
Protocol: Cellular thermal shift analysis (CETSA) was conducted at Pelago Bioscience. Briefly, HEK293T cells were harvested and suspended in an experimental Buffer B (20 mM HEPES, 138 mM NaCl, 5 mM KCl, 2 mM CaCl2), 1 mM MgCl2, pH7.4) at a density of 4×10^7 cells/ml. Cell suspension was lysed by three rounds of freeze-thaw cycles with liquid nitrogen and clarified at 20,000 g for 20 min at 4° C. Compounds diluted to 2× final concentration (final solution contains 1% DMSO) in Buffer B were added to equal volume of clarified cell lysates and incubated at 37° C. for 30 min with continuous rotation. 1% DMSO was used as a negative control in parallel. The treated cell lysates were then divided into 60 μl aliquots and subjected to a 12-step heat challenge between 50° C. and 62° C. for 3 min. For the concentration-dependent analyses, clarified cell lysates in 30 aliquots were mixed with an equal volume of compounds or DMSO in Buffer B at 2× intended compound concentration and incubated at 37° C. for 30 min with continuous rotation. JMM001-treated lysates were then heat challenged at 59° C. as determined from its corresponding cellular thermal shift curve. All treated lysates were immediately centrifugated at 20,000 g for 20 min at 4° C. prior to immunoblotting analysis. […] The obtained intensities were plotted as the luminescence count normalized to a relevant temperature or control count as specified.

[1] = molecular target: Recombinant human (rh) NPEPPS protein (Homo sapiens, UniProt P55786); experiment: Cell-free thermal shift (protein stability) assay; format: binding; conditions: concentration-dependent
Recombinant human (rh) NPEPPS protein, sequence (P55786 whole entry): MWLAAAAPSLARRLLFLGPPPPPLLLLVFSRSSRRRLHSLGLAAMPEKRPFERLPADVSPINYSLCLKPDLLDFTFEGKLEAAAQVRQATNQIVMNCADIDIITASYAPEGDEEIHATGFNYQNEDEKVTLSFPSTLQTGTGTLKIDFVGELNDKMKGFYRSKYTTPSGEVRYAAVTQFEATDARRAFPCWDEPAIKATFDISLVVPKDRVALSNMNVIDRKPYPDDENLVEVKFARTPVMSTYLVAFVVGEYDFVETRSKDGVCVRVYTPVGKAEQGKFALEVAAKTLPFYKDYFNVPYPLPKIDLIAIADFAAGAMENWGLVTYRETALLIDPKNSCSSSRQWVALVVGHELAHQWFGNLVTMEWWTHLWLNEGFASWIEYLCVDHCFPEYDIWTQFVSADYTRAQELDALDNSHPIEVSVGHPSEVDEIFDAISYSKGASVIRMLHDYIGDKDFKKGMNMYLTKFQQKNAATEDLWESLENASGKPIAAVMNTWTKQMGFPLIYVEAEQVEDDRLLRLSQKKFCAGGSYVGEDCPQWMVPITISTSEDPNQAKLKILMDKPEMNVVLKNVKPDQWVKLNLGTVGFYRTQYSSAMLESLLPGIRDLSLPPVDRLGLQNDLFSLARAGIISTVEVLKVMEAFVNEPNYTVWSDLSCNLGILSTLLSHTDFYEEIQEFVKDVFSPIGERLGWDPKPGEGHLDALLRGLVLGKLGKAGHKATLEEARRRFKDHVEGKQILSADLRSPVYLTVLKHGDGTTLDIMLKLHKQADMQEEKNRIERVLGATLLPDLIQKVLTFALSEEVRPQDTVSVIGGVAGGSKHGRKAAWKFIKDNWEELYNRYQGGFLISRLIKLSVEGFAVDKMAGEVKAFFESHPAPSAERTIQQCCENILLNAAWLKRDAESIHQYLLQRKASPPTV
Protocol: Cell-free thermal shift assay: Recombinant human (rh) NPEPPS protein was diluted in Buffer A (20 mM Tris, 137 mM NaCl, pH 7.5) to a final concentration of 1.25 μM and added to a pre-chilled 384-well microplate (Biorad HSR4801). JMM001, dimethyl sulfoxide (DMSO, Sigma D2650), or NPEPPS inhibitor puromycin dihydrochloride (Sigma P8833) in 1 μl was then added to each well, mixed with gentle aspiration, and incubated with rhNPEPPS for 3 min on ice. SYPRO Orange (Invitrogen S6651) was diluted to 200× concentration in Buffer A and added to each well achieving a final dilution of 1:20, mixed with gentle aspiration. The final assay volume was 20 μl. The plate was sealed followed by a brief spin-down. The samples were analyzed on a Real-time PCR system (Roche LightCycler 480) from 20° C. to 85° C. at a continuous acquisition rate of 5 measurements/° C. and measured at excitation/emission wavelengths of 533/580 nm. Melting temperature is calculated as the lowest derivative of the fluorescence signal as a function of the temperature as previously described^7,18.

α-synuclein = experiment: alpha-synuclein protein level in human primary cortical neurons; format: cell-based; conditions: 50 μM, 48 hrs
Protocol: (§1) FIG. 11. Potential applications of NPEPPS enhancer JMM series on other neurodegenerative diseases. JMM001 (Cp 1) at 50 μM reduces protein levels of huntingtin (htt), SOD1, ataxin, and alpha-synuclein in human primary cortical neurons. Neurons were treated with 50 μM JMM001 or 10 uM bestatin for 48 hrs. N=3-4±SEM.

[2] = tested on: superoxide dismutase 1 (SOD1); experiment: SOD1 protein level in human primary cortical neurons; format: cell-based; conditions: 50 μM, 48 hrs
Protocol: as §1

T1 sequence (P55786 whole entry): as above

## COc1ccc(CNc2nsc3ccccc23)cc1OC [JMM001]
NPEPPS
  thermal shift of NPEPPS: significant thermal shift
[1]
  melting temperature of rhNPEPPS: significant, concentration-dependent increases in melting temperature
α-synuclein
  protein level of α-synuclein: reduces
[2]
  protein level of SOD1: reduces
